In patent publication US8470835B2, “Pyrimidinecarboxamide derivatives as inhibitors of Syk kinase” (Glaxo Group Limited, priority 2009, dated 2013):
Where two headings read alike, the source gives them in different places.

How the values were obtained:
[1] = test system: patients with relapsed or refractory B-Cell non-Hodgkin's lymphoma (NHL); details: cited from earlier work
[2] = test system: B lymphoma (BKS-2); details: mouse, in vivo; cited from earlier work
[3] = target: Recombinant human VEGFR2 (KDR) (Homo sapiens (Human), UniProt P35968); assay: VEGFR2 (KDR) enzyme assay, TR-FRET kinase assay (3); type: biochemical; details: read-out: Vegfr enzyme assay (3) IC50
Procedure: VEGFR2 (KDR) Enzyme Assay—Time-resolved Fluorescence Resonance Energy Transfer Kinase Assay
Recombinant human VEGFR2 (KDR) intracellular domain (including the entire kinase domain) was expressed as a GST-6His-tagged protein*. The activity of VEGFR2 was assessed using a time-resolved fluorescence resonance energy transfer (TR-FRET) assay. Test compounds at the desired concentrations in 100% DMSO or 100% DMSO vehicle were added in 0.1 μL to a Greiner low-volume, 384-well, black plate (#784076). The plate was centrifuged minimally at 1000 RPM for 1 min. to force all of the liquid to the bottom of the wells prior to addition of any assay reagents. *Purification of Recombinant GST-6His-VEGFR2
VEGFR2 (100 nM typically) was activated at room temperature for 20 min. in the presence of 100 mM HEPES, pH 7.5, 10 mM MgCl2, 100 μM ATP, 300 μM DTT, and 0.1 mg/mL BSA. […] The solution of activated VEGFR2 was diluted 100-fold in 200 mM HEPES, pH 7.5, 0.2 mg/mL BSA, and 0.6 mM DTT. The VEGFR2 catalyzed reaction was initiated by the addition of 5 μL of the diluted, activated VEGFR2. […] After incubation for 10 min. at room temperature, phosphorylation of the biotinylated peptide substrate was measured as a ratio of specific 665 nm energy transfer signal to reference europium 615 nm signal using a Viewlux 1430 ultraHTS Microplate Imager (PerkinElmer, Turku, Finland).

[4] = test system: Ramos B cells; assay: Ramos pErk assay (4); type: cell-based; details: Homo sapiens, anti-IgM stimulated
Procedure: Ramos B cells (human B cells of Burkitt's Lymphoma) are stimulated using anti-IgM. […] As a result Erk is phosphorylated and following cell lysis is detected by an immune capture assay.
Stimulation of Ramos Cells with Anti-IqM
Cells were plated at a density of 5×10^5/well in a volume of 25 μl assay medium (RPMI containing 10% heat inactivated foetal calf serum, 1% L-glutamine and 1% Penicillin/Streptomycin) in 96 v-well polypropylene plates. […] Cells are lysed by the addition of 55 μL 2×RIPA lysis buffer for 2 h at 4° C.
50 μl cell lysate was transferred to a 96 well MSD plate coated with anti-pErk1/2 (Thr/Thy: 202/204; 185/187) capture antibody and incubated for 16 hours at 4° C. The plate was washed and an anti-pErk detection antibody added (25 μl/well) for 2 h at room temperature. This was removed, 150 μL MSD read buffer added and the resultant electrochemiluminescence signal measured.

[5] = test system: Whole blood B cells; assay: CD69 whole blood assay (6); type: cell-based; details: Homo sapiens, B-cell, all data points
Procedure: 6. CD69 Whole Blood Assay
Whole blood B cells are stimulated ex-vivo using anti-IgM. […] The subsequent autophosphorylation of Syk leads to initiation of a signalling cascade resulting in B cell activation as indicated by expression of the activation marker CD69 on the cell surface. CD20/CD69+ve whole blood B cells are detected by flow cytometry.
Stimulation of Whole Blood B Cells with Anti-IqM
100 μl heparinised human blood was added to a 5 ml polypropylene tube containing 1 μl appropriately diluted compound solution and incubated for 30 min at 37° C. with 5% CO2. B cells were stimulated with 10 μl Fab′2 fragments of goat anti-human IgM (67.5 μg/ml final) for a further 3.5 h under the conditions previously described. The red blood cells were lysed and all other cells fixed by the addition of 2 ml Lyse/Fix buffer for 10 min at room temperature.
The cells were stained using a cocktail of mouse anti-human CD20 FITC and mouse anti-human CD69 APC conjugated antibodies. CD20/CD69+ve B cells present in the sample were detected by flow cytometry.
Compound dilutions were prepared using the Biomek 2000 automated robotic pipetting system.

[6] = test system: allergic rhinitis; details: dosed intranasally; cited from earlier work
[7] = test system: allergic rhinitis; details: phase II; cited from earlier work

Recombinant human VEGFR2 (KDR), sequence (P35968 786-1356): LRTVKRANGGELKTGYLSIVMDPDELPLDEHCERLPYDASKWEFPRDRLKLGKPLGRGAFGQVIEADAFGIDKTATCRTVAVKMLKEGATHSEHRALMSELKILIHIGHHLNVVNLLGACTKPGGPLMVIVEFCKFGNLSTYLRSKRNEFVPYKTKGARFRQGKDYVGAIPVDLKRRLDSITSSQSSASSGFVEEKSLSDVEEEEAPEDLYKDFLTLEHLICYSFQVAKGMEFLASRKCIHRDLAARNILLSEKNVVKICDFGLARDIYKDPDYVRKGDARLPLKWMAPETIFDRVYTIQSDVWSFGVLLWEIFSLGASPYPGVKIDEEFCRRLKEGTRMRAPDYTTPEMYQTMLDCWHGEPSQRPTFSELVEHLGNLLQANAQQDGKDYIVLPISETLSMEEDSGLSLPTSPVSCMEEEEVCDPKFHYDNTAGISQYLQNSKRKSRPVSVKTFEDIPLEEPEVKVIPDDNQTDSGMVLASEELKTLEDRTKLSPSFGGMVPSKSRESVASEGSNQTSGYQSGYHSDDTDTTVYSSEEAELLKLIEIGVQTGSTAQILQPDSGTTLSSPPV

For `COc1cc(Nc2ncc(F)c(Nc3ccc4c(n3)N(COP(=O)(O)O)C(=O)C(C)(C)O4)n2)cc(OC)c1OC` [Example R788, fostamatinib disodium], which clinical efficacy ([1]; patients with DLBCL and CLL/SLL) is on record?
Its clinical efficacy is “therapeutic benefit”.

What about the tolerability in patients ([1]; relapsed or refractory B-Cell NHL) of the same molecule?
Its tolerability in patients is “well-tolerated”.

For `COc1cc(/C=C/C(=O)CC(=O)/C=C/c2ccc(O)c(OC)c2)ccc1O` [curcumin], which “tumour burden as measured by the total splenocyte number” value [2] is on record?
Its value is “significant reduction of tumour burden”.

Which results are given for `Cc1cccc(Nc2nc(N[C@@H]3CCCC[C@@H]3N)ncc2C(N)=O)c1` [Reference example 1]?
IC50 [3]: 6300 nM; IC50 ([4]; read-out: RAMOS pErk assay (4) IC50): 32 nM; IC50 ([4]; read-out: RAMOS pErk assay (4) pIC50 (converted)): 31.6 nM; IC50 ([5]; read-out: CD69 whole blood assay (6) IC50): 500 nM; IC50 ([5]; read-out: CD69 whole blood assay (6) pIC50 (converted)): 501 nM

For `Oc1cccc(Nc2ncc(F)c(Nc3cccc(O)c3)n2)c1` [Example R112], which “change in PGD2” value [6] is on record?
The value was “statistically significant decrease”.

And the clinical safety [6]?
The clinical safety was “safe across a range of indicators”.

And the efficacy versus placebo [7]?
Its efficacy versus placebo is “lack of efficacy versus placebo”.
